System: LG0567-F671-PDC complex spheroids viability
Test: Anticancer human tumor LG0567-F671-PDC patient-derived lung adenocarcinoma cell line growth inhibition [RAS]
Settings: for IC50: curve of first compound; for viability, T/C: stronger effect = lower value
In short: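 Tumour cells grown as complex spheroids with HUVEC endothelial cells and mesenchymal stem cells, treated with RAS pathway inhibitor combinations. Each agent spans half-log steps from near clinical Cmax, or 10 microM where Cmax is unknown.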

[1] = second compound 0.000949 µM, first compound 0.0316 µM
[2] = second compound 0.000949 µM, first compound 0.1 µM
[3] = second compound 0.000949 µM, first compound 0.316 µM
[4] = second compound 0.000949 µM, first compound 1 µM
[5] = second compound 0.000949 µM, first compound 3.16 µM
[6] = second compound 0.000949 µM, first compound 10 µM
[7] = second compound 0.003 µM, first compound 0.0316 µM
[8] = second compound 0.003 µM, first compound 0.1 µM
[9] = second compound 0.003 µM, first compound 0.316 µM
[10] = second compound 0.003 µM, first compound 1 µM
[11] = second compound 0.003 µM, first compound 3.16 µM
[12] = second compound 0.003 µM, first compound 10 µM
[13] = second compound 0.00949 µM, first compound 0.0316 µM
[14] = second compound 0.00949 µM, first compound 0.1 µM
[15] = second compound 0.00949 µM, first compound 0.316 µM
[16] = second compound 0.00949 µM, first compound 1 µM
[17] = second compound 0.00949 µM, first compound 3.16 µM
[18] = second compound 0.00949 µM, first compound 10 µM
[19] = second compound 0.03 µM, first compound 0.0316 µM
[20] = second compound 0.03 µM, first compound 0.1 µM
[21] = second compound 0.03 µM, first compound 0.316 µM
[22] = second compound 0.03 µM, first compound 1 µM
[23] = second compound 0.03 µM, first compound 3.16 µM
[24] = second compound 0.03 µM, first compound 10 µM
[25] = second compound 0.0949 µM, first compound 0.0316 µM
[26] = second compound 0.0949 µM, first compound 0.1 µM
[27] = second compound 0.0949 µM, first compound 0.316 µM
[28] = second compound 0.0949 µM, first compound 1 µM
[29] = second compound 0.0949 µM, first compound 3.16 µM
[30] = second compound 0.0949 µM, first compound 10 µM
[31] = second compound 0.3 µM, first compound 0.0316 µM
[32] = second compound 0.3 µM, first compound 0.1 µM
[33] = second compound 0.3 µM, first compound 0.316 µM
[34] = second compound 0.3 µM, first compound 1 µM
[35] = second compound 0.3 µM, first compound 3.16 µM
[36] = second compound 0.3 µM, first compound 10 µM
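Also: spheroids exposed to compound for seven days before readout.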
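For IC50 in this document: luminescence signal used as a proxy for viable cells.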

Q: Which IC50 (second compound 0.000949 µM) does the source give for `CC1(O)CCCC1n1c(=O)c(C(F)F)cc2cnc(NC3CCN(S(C)(=O)=O)CC3)nc21` (stereo unspecified) + CCn1c(-c2cc(N3CCN(C)CC3)cnc2C(C)OC)c2c3cc(ccc31)-c1csc(n1)CC(NC(=O)C1CC1C)C(=O)N1CCCC(N1)C(=O)OCC(C)(C)C2 here?
A: Its IC50 is < 31.6 nM.

Q: And the IC50 (second compound 0.003 µM)?
A: The IC50 was < 31.6 nM.

Q: What about the IC50 (second compound 0.00949 µM) of the same molecule?
A: Its IC50 is < 31.6 nM.

Q: What about the IC50 (second compound 0.03 µM) of the same molecule?
A: The IC50 was < 31.6 nM.

Q: And the IC50 (second compound 0.0949 µM)?
A: The IC50 was < 31.6 nM.

Q: And the IC50 (second compound 0.3 µM)?
A: The IC50 was < 31.6 nM.

Q: What about the viability, T/C [1] of the same molecule?
A: The viability, T/C was 29.6%.

Q: And the viability, T/C [2]?
A: The viability, T/C was 27.7%.

Q: And the viability, T/C [3]?
A: Its viability, T/C is 34.2%.

Q: What about the viability, T/C [4] of the same molecule?
A: The viability, T/C was 35.2%.

Q: And the viability, T/C [5]?
A: Its viability, T/C is 36.3%.

Q: What about the viability, T/C [6] of the same molecule?
A: The viability, T/C was 24.7%.

Q: What about the viability, T/C [7] of the same molecule?
A: The viability, T/C was 11.8%.

Q: And the viability, T/C [8]?
A: The viability, T/C was 15.6%.

Q: What about the viability, T/C [9] of the same molecule?
A: Its viability, T/C is 16.7%.

Q: And the viability, T/C [10]?
A: Its viability, T/C is 17.6%.

Q: And the viability, T/C [11]?
A: Its viability, T/C is 18.6%.

Q: And the viability, T/C [12]?
A: Its viability, T/C is 14.1%.

Q: What about the viability, T/C [13] of the same molecule?
A: Its viability, T/C is 7.99%.

Q: And the viability, T/C [14]?
A: Its viability, T/C is 8.49%.

Q: And the viability, T/C [15]?
A: Its viability, T/C is 10.3%.

Q: What about the viability, T/C [16] of the same molecule?
A: Its viability, T/C is 10.8%.

Q: What about the viability, T/C [17] of the same molecule?
A: The viability, T/C was 11.8%.

Q: And the viability, T/C [18]?
A: The viability, T/C was 8.83%.

Q: And the viability, T/C [19]?
A: Its viability, T/C is 4.53%.

Q: What about the viability, T/C [20] of the same molecule?
A: Its viability, T/C is 5.49%.

Q: And the viability, T/C [21]?
A: The viability, T/C was 6.91%.

Q: What about the viability, T/C [22] of the same molecule?
A: The viability, T/C was 7.53%.

Q: And the viability, T/C [23]?
A: The viability, T/C was 8.07%.

Q: What about the viability, T/C [24] of the same molecule?
A: The viability, T/C was 5.96%.

Q: What about the viability, T/C [25] of the same molecule?
A: The viability, T/C was 4.61%.

Q: And the viability, T/C [26]?
A: Its viability, T/C is 4.51%.

Q: And the viability, T/C [27]?
A: Its viability, T/C is 5.52%.

Q: And the viability, T/C [28]?
A: Its viability, T/C is 6.15%.

Q: And the viability, T/C [29]?
A: Its viability, T/C is 6.66%.

Q: And the viability, T/C [30]?
A: The viability, T/C was 5%.

Q: What about the viability, T/C [31] of the same molecule?
A: Its viability, T/C is 3.25%.

Q: What about the viability, T/C [32] of the same molecule?
A: The viability, T/C was 3.76%.

Q: And the viability, T/C [33]?
A: The viability, T/C was 4.31%.

Q: And the viability, T/C [34]?
A: Its viability, T/C is 5.52%.

Q: What about the viability, T/C [35] of the same molecule?
A: The viability, T/C was 5.43%.

Q: And the viability, T/C [36]?
A: The viability, T/C was 4.68%.

Q: Which results are given for `CCC(CC)c1cc(NC2CCC(N)C2)n2nccc2n1` (stereo unspecified) + CCn1c(-c2cc(N3CCN(C)CC3)cnc2C(C)OC)c2c3cc(ccc31)-c1csc(n1)CC(NC(=O)C1CC1C)C(=O)N1CCCC(N1)C(=O)OCC(C)(C)C2?
A: IC50 (second compound 0.000949 µM): < 31.6 nM; IC50 (second compound 0.003 µM): < 31.6 nM; IC50 (second compound 0.00949 µM): < 31.6 nM; IC50 (second compound 0.03 µM): < 31.6 nM; IC50 (second compound 0.0949 µM): < 31.6 nM; IC50 (second compound 0.3 µM): < 31.6 nM; viability, T/C [1]: 23.1%; viability, T/C [2]: 23.2%; viability, T/C [3]: 25.9%; viability, T/C [4]: 22.7%; viability, T/C [5]: 0.34%; viability, T/C [6]: 0.1%; viability, T/C [7]: 10.8%; viability, T/C [8]: 9.27%; viability, T/C [9]: 10.1%; viability, T/C [10]: 9.94%; viability, T/C [11]: 0.21%; viability, T/C [12]: 0.08%; viability, T/C [13]: 6.93%; viability, T/C [14]: 7.19%; viability, T/C [15]: 6.29%; viability, T/C [16]: 4.74%; viability, T/C [17]: 0.26%; viability, T/C [18]: 0.09%; viability, T/C [19]: 4.43%; viability, T/C [20]: 3.65%; viability, T/C [21]: 3.4%; viability, T/C [22]: 2.31%; viability, T/C [23]: 0.18%; viability, T/C [24]: 0.09%; viability, T/C [25]: 2.75%; viability, T/C [26]: 2.83%; viability, T/C [27]: 2.71%; viability, T/C [28]: 1.9%; viability, T/C [29]: 0.21%; viability, T/C [30]: 0.11%; viability, T/C [31]: 2.39%; viability, T/C [32]: 2.56%; viability, T/C [33]: 2.39%; viability, T/C [34]: 1.46%; viability, T/C [35]: 0.22%; viability, T/C [36]: 0.15%

Q: With `CCN1CCN(Cc2ccc(Nc3ncc(F)c(-c4cc(F)c5nc(C)n(C(C)C)c5c4)n3)nc2)CC1` + CCn1c(-c2cc(N3CCN(C)CC3)cnc2C(C)OC)c2c3cc(ccc31)-c1csc(n1)CC(NC(=O)C1CC1C)C(=O)N1CCCC(N1)C(=O)OCC(C)(C)C2 as the molecule, how does the IC50 (second compound 0.000949 µM) read?
A: Its IC50 is < 3.16 nM.

Q: What about the IC50 (second compound 0.003 µM) of the same molecule?
A: Its IC50 is < 3.16 nM.

Q: What about the IC50 (second compound 0.00949 µM) of the same molecule?
A: The IC50 was < 3.16 nM.

Q: And the IC50 (second compound 0.03 µM)?
A: The IC50 was < 3.16 nM.

Q: What about the IC50 (second compound 0.0949 µM) of the same molecule?
A: The IC50 was < 3.16 nM.

Q: And the IC50 (second compound 0.3 µM)?
A: The IC50 was < 3.16 nM.

Q: And the viability, T/C (second compound 0.000949 µM, first compound 0.00316 µM)?
A: Its viability, T/C is 27.4%.

Q: And the viability, T/C (second compound 0.000949 µM, first compound 0.01 µM)?
A: The viability, T/C was 24.3%.

Q: What about the viability, T/C [1] of the same molecule?
A: Its viability, T/C is 23.6%.

Q: What about the viability, T/C [2] of the same molecule?
A: Its viability, T/C is 23.9%.

Q: And the viability, T/C [3]?
A: Its viability, T/C is 27.4%.

Q: And the viability, T/C [4]?
A: Its viability, T/C is 30.4%.

Q: What about the viability, T/C (second compound 0.003 µM, first compound 0.00316 µM) of the same molecule?
A: The viability, T/C was 11.5%.

Q: What about the viability, T/C (second compound 0.003 µM, first compound 0.01 µM) of the same molecule?
A: The viability, T/C was 11.9%.

Q: And the viability, T/C [7]?
A: Its viability, T/C is 10.8%.

Q: And the viability, T/C [8]?
A: The viability, T/C was 11.4%.

Q: And the viability, T/C [9]?
A: Its viability, T/C is 14.7%.

Q: What about the viability, T/C [10] of the same molecule?
A: The viability, T/C was 21.5%.

Q: And the viability, T/C (second compound 0.00949 µM, first compound 0.00316 µM)?
A: The viability, T/C was 6.37%.

Q: And the viability, T/C (second compound 0.00949 µM, first compound 0.01 µM)?
A: The viability, T/C was 6.88%.

Q: What about the viability, T/C [13] of the same molecule?
A: The viability, T/C was 6.24%.

Q: And the viability, T/C [14]?
A: The viability, T/C was 6.47%.

Q: And the viability, T/C [15]?
A: Its viability, T/C is 7.63%.

Q: And the viability, T/C [16]?
A: Its viability, T/C is 14.4%.

Q: And the viability, T/C (second compound 0.03 µM, first compound 0.00316 µM)?
A: The viability, T/C was 4.36%.

Q: And the viability, T/C (second compound 0.03 µM, first compound 0.01 µM)?
A: The viability, T/C was 4.91%.

Q: And the viability, T/C [19]?
A: The viability, T/C was 4.15%.

Q: What about the viability, T/C [20] of the same molecule?
A: Its viability, T/C is 4.09%.

Q: And the viability, T/C [21]?
A: The viability, T/C was 5.04%.

Q: And the viability, T/C [22]?
A: The viability, T/C was 8.84%.

Q: And the viability, T/C (second compound 0.0949 µM, first compound 0.00316 µM)?
A: Its viability, T/C is 3.5%.

Q: And the viability, T/C (second compound 0.0949 µM, first compound 0.01 µM)?
A: Its viability, T/C is 3.29%.

Q: And the viability, T/C [25]?
A: The viability, T/C was 2.92%.

Q: And the viability, T/C [26]?
A: The viability, T/C was 2.88%.

Q: And the viability, T/C [27]?
A: Its viability, T/C is 3.8%.

Q: What about the viability, T/C [28] of the same molecule?
A: Its viability, T/C is 6%.

Q: What about the viability, T/C (second compound 0.3 µM, first compound 0.00316 µM) of the same molecule?
A: Its viability, T/C is 3.07%.

Q: And the viability, T/C (second compound 0.3 µM, first compound 0.01 µM)?
A: The viability, T/C was 2.94%.

Q: What about the viability, T/C [31] of the same molecule?
A: The viability, T/C was 2.53%.

Q: What about the viability, T/C [32] of the same molecule?
A: Its viability, T/C is 2.95%.

Q: And the viability, T/C [33]?
A: The viability, T/C was 3.25%.

Q: And the viability, T/C [34]?
A: Its viability, T/C is 4.38%.

Source: PubChem BioAssay AID2060889 (Molecular Pharmacology Branch, DTP, NCI, 2025)
